Experimental data as given in patent US20250332109A1 (Veradermics, Incorporated, priority 2024, published 2025).
Read-outs that look alike come from different tables or passages of the source.

Experiments:
[1] = cited from earlier work
[2] = system: subjects; settings: topical foam 5% versus vehicle topical foam; 404 subjects enrolled; cited from earlier work
[3] = system: person with androgenetic alopecia; settings: 1.25 mg QID
[4] = primarily by conjugation with glucuronic acid; cited from earlier work
[5] = system: patients; settings: chronic therapy; initially, then recovers; cited from earlier work
[6] = system: hypertensive patients; settings: intravenous infusion; cited from earlier work
[7] = system: person with androgenetic alopecia; experiment: Case study: person with androgenetic alopecia and hypertension treated with oral minoxidil; settings: 0.625 mg four times a day
[8] = system: rabbits; settings: oral, 5 times the maximum recommended oral antihypertensive human dose; cited from earlier work
[9] = system: mice; settings: dietary, up to 2 years, 10, 25, and 63 mg/kg/day; cited from earlier work
[10] = system: male adults with AGA; settings: 5 mg oral at bedtime; 24 week follow up; cited from earlier work

SMILES: Nc1cc(N2CCCCC2)nc(N)[n+]1[O-] [minoxidil]
- dose dependence of PK ([1]; 2.5 mg, 5 mg, 10 mg oral, PK and urinary excretion data): dose-independent PK
- duration plasma concentrations above 20 ng/mL ([1]; 5 mg dose level): around 1 h
- duration plasma concentrations above 20 ng/mL ([1]; 10 mg dose level): around 2 h
- observed half-life ([1]; immediate release formulation, healthy subjects): around 1 h
- effect on blood pressure ([1]; normotensive subjects, 2.5 mg, 5 mg, or 10 mg oral): little effect on blood pressure
- SAEs reported in treated subjects [2]: Six
- unwanted hair growth or other adverse events, including cardiac effects [3]: No unwanted hair growth or other adverse events
- fraction of oral dose metabolized [4]: About 90%
- temporary decrease in hematocrit, hemoglobin, and erythrocyte count (hemodilution) [5]: approximately 7%
- steady state plasma concentration associated with significant (>5 beats per minute) changes in heart rate [6]: above 20 ng/mL
- reductions in blood pressure [7]: did not experience significant reductions in blood pressure
- unwanted hair growth or other adverse events [7]: No unwanted hair growth or other adverse events
- fetal resorption [8]: increased fetal resorption
- incidence of malignant lymphomas in females [9]: increased incidence of malignant lymphomas
- subjects reporting edema [10]: 2.9%
- subjects reporting vertigo [10]: 2.9%
